Laboratory results published in US4582844A, “Antithrombotic 4,5 di-t-butyl-imidazole derivatives” (Hoffmann-La Roche Inc., priority 1980, dated 1986).

System: Human platelet-rich plasma (blood platelets)
Experiment: Collagen-induced blood platelet aggregation (aggregometer method of Born; maximum aggregation velocity)
Assay type: cell-based
Details: human citrated platelet-rich plasma, 10 min preincubation at 37° C., collagen fibrils
Method: The maximum aggregation velocity was taken as the test parameter and the effective concentration (EC50) was ascertained from dosage-activity curves.
Human platelet-rich plasma was obtained by centrifugation from citrated venous blood. The experiments were carried out with suspensions of the test substances in 0.9% sodium chloride. 0.18 ml of citrate plasma was treated with a 10 μl suspension of the test compound and incubated at 37° C. for 10 minutes, whereupon the aggregation was initiated by adding 10 μl of a suspension of collagen fibrils.

CC(C)(C)c1nc(-c2ccc(F)cc2)[nH]c1C(C)(C)C [4,5-Di-t-butyl-2-(4-fluorophenyl)-imidazole]
EC50: 0.5 µM

CC(C)(C)c1nc(-c2ccccc2)[nH]c1C(C)(C)C [4,5-Di-t-butyl-2-phenylimidazole, 4,5-di-t-butyl-2-phenylimidazole]
EC50: 0.6 µM

COc1cc(-c2nc(C(C)(C)C)c(C(C)(C)C)[nH]2)cc(OC)c1OC [4,5-di-t-butyl-2-(3,4,5-trimethoxyphenyl)-imidazole]
EC50: 0.72 µM

CC(C)(C)c1nc(-c2ccc3c(c2)OCO3)[nH]c1C(C)(C)C [4,5-di-t-butyl-2-(3,4-methylenedioxyphenyl)-imidazole]
EC50: 0.55 µM

COc1cc(-c2nc(C(C)(C)C)c(C(C)(C)C)[nH]2)cc2c1OCO2 [4,5-di-t-butyl-2-(5-methoxy-3,4-methylenedioxyphenyl)-imidazole]
EC50: 14.4 µM
